{"source": "paper PMC7179128", "about": "“Characterizations and Assays of α-Glucosidase Inhibition Activity on Gallic Acid Cocrystals: Can the Cocrystals be Defined as a New Chemical Entity During Binding with the α-Glucosidase?” (Molecules, 2020)", "key": {"[1]": {"assay": "Powder dissolution test in 0.1 mol∙L^−1 HCl", "format": "physicochemical", "details": "after 25 min, 37 ± 0.5 °C", "procedure": "Co., Ltd., Shanghai, China) at 25 °C in five different solutions (pH 1, 2, 4, 8 and water, respectively) using the shake-flask method. Excess sample was added in the solvent and the suspension was shaken for 72 h in an air bath. The suspension was filtered through a 0.45 μm Millipore filter. Then, the GA concentration was determined using HPLC (Agilent 1200, Santa Clara, CA, USA). […] Approximately 50 mg of the sample (here single GA and cocrystals equivalent to 50 mg of GA) were placed in 900 mL dissolution media. Four milliliters of the suspensions were taken at appropriate intervals and immediately replaced by 4 mL of fresh dissolution media. All samples were filtered through a 0.45 μm Millipore filter. The concentration of GA in all samples were determined by HPLC. All tests were repeated thrice. Bioavailability in vivo was assayed using SD rats. […] The intragastric suspensions were prepared by suspending GA or the cocrystal (equivalent to same amount of GA) in 5% sodium carboxymethyl cellulose. Thereafter, the intragastric suspensions were orally administered to the rats at a single dose of 50 mg∙kg^-1. An approximately 500 μL blood sample was obtained from the eye canthus and collected into 1.5 mL heparinized plastic centrifuge tubes at the set time point after intragastric administration. […] The pharmacokinetic parameters were calculated using DAS 2.0 software."}, "[2]": {"assay": "Oral bioavailability / pharmacokinetics in SD rats", "format": "in vivo", "details": "rat, single dose 50 mg∙kg^−1 (GA equivalent), n = 6, GA in plasma", "procedure": "Co., Ltd., Shanghai, China) at 25 °C in five different solutions (pH 1, 2, 4, 8 and water, respectively) using the shake-flask method. Excess sample was added in the solvent and the suspension was shaken for 72 h in an air bath. The suspension was filtered through a 0.45 μm Millipore filter. Then, the GA concentration was determined using HPLC (Agilent 1200, Santa Clara, CA, USA). […] Approximately 50 mg of the sample (here single GA and cocrystals equivalent to 50 mg of GA) were placed in 900 mL dissolution media. Four milliliters of the suspensions were taken at appropriate intervals and immediately replaced by 4 mL of fresh dissolution media. All samples were filtered through a 0.45 μm Millipore filter. The concentration of GA in all samples were determined by HPLC. All tests were repeated thrice. Bioavailability in vivo was assayed using SD rats. […] The intragastric suspensions were prepared by suspending GA or the cocrystal (equivalent to same amount of GA) in 5% sodium carboxymethyl cellulose. Thereafter, the intragastric suspensions were orally administered to the rats at a single dose of 50 mg∙kg^-1. An approximately 500 μL blood sample was obtained from the eye canthus and collected into 1.5 mL heparinized plastic centrifuge tubes at the set time point after intragastric administration. GA was extracted from plasma by protein precipitation. One hundred microliters of plasma was mixed with internal standard solution (20 μL) in the centrifuge tube; then, the solution of acetonitrile formic acid (2%, v/v) was added to precipitate the protein. […] Then, the supernatant was taken for determining the concentration of GA by the LC-MS/MS (MS:3200 QTRAP, AB SCIEX, MA, USA, LC: Agilent1200, Santa Clara, CA, USA) method. The blood concentration-time curve was drawn by taking blood sampling time as the horizontal coordinate and GA concentration as the vertical coordinate. The pharmacokinetic parameters were calculated using DAS 2.0 software."}, "α-glucosidase": {"molecular_target": "α-glucosidase (Saccharomyces cerevisiae, UniProt P53341)", "sequence (P53341 whole entry)": "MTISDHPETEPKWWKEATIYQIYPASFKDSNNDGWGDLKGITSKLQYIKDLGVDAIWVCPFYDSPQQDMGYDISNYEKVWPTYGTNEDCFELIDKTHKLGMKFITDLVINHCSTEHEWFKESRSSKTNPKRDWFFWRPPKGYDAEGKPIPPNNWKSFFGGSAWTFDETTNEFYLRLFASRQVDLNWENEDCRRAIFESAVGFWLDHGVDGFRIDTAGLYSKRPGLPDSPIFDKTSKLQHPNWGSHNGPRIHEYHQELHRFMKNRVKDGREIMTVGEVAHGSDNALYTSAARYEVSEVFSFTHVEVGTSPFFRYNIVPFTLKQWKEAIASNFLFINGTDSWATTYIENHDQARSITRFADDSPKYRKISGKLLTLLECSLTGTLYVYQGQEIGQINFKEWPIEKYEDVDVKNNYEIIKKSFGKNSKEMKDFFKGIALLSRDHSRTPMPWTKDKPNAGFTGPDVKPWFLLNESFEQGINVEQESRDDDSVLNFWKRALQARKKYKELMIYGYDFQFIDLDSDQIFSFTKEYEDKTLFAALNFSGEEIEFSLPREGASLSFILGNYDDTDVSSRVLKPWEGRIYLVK", "assay": "α-glucosidase inhibitory activity in vitro (pNPG substrate, absorbance at 405 nm)", "format": "biochemical", "details": "in vitro inhibition rate, Figure 4", "description": "Briefly, accurately weighed α-glucosidase was dissolved in 0.1 mol∙L^−1 potassium phosphate buffer (pH 6.8) to produce 50 μL of enzyme solution with a concentration of 1.0 U∙mL^−1. Fifty microliters of enzyme solution and 50 μL of test sample were mixed in a well of a microtiter plate to incubate for 10 min at 37 °C. Three millimoles of pNPG in the same buffer was used as a substrate solution. After pre-incubation at 37 °C for 10 min, 50 μL of pNPG solution was added into above enzyme solution. The enzymatic reaction was allowed to proceed at 37 °C for 10 min, following the measurement of 4-nitrophenol absorbance at 405 nm on a microplate spectrophotometer. The solution without α-glucosidase was used as a blank. The solution without the test sample was used as a test. The solution without the test sample and α-glucosidase was used as a control.\nIC50 values were obtained as the mean of three independent experiments, which were constructed by testing a series of concentrations (i.e., three curves were obtained, each in triplicate)."}}, "data": [{"smiles": "O=C(O)c1cc(O)c(O)c(O)c1", "note": "[GA, gallic acid]", "values": [{"measurement": "cumulative dissolution", "setting": "[1]", "value": 80, "unit": "%"}, {"measurement": "AUC(0-inf)", "setting": "[2]", "value": "4200 ± 1200", "unit": "ng·h/mL"}, {"measurement": "AUC(0-t)", "setting": "[2]", "value": "4100 ± 1200", "unit": "ng·h/mL"}, {"measurement": "Cmax", "setting": "[2]", "value": "1500 ± 500", "unit": "ng/mL"}]}, {"smiles": "O=C1CCC(=O)N1", "note": "[succinimide]", "values": [{"measurement": "α-glucosidase inhibitory activity (in words)", "setting": "α-glucosidase", "value": "no inhibitory activity"}]}]}
